Measurements: patent publication US10864246B2, “Method for lowering triglyceride” (Centro De Investigación En Alimentación Y Desarrollo, A.C. …, priority 2011, dated 2020)

Key:
[1] = system: spontaneously hypertensive rats (SHR); test: Long-term (4 weeks) consumption in SHR, tail-cuff blood pressure; type: in vivo, rat
Protocol: SHR were feed ad libitum with milk fermented by L. lactis NRRL B-50571, L. lactis NRRL B-50572, captopril (40 mg/kg body weight) or purified water for four weeks. […] Additionally, milk fermented by L. lactis strains modified SHR lipid profiles. Milk fermented by L. lactis NRRL B-50571 and B-50572 was able to reduce plasma low-density lipoprotein (LDL) cholesterol by 55.4±3 mg/dL and 66.3±4 mg/dL, respectively. Thus, milk fermented by L. lactis strains may be a coadjuvant in the reduction of hypertension and hyperlipidemia and may be used as a functional food for better cardiovascular health. […] Subsequently, samples were frozen at −20° C. All fermented milk samples were daily unfrozen and homogenized (for 20 minutes before use. Thirty-two male SHR were obtained from Harlan Laboratories, Inc., (Indianapolis, Ill., USA). The rats were randomly housed in pairs per cage at 21±2° C. with 12 h light/dark cycles, 52±6% relative humidity and with ad libitum intake of a standard diet (TEKLAD, Harlan Laboratories, USA) during the experiment. SHR (27-28 weeks old and 355±24 g weight) were divided into four groups of eight rats (n=8): purified water (negative control), captopril (proven hypotensive drug, positive control) (40 mg/kg body weight (BW), milk fermented by L. lactis NRRL B-50571 and milk fermented by L. lactis NRRL 50572. All SHR had free access to each treatment during three weeks as part of the protocol. Half of the animals were sacrificed at the end of that period. The rest of the SHR only received purified water during one more week before being sacrificed. A research animal protocol was followed according to the guidelines established by the institutional (CIAD, A.C.) Ethics Committee. The lowering blood pressure effect of milk fermented by specific L. lactis strains on SHR was monitored through time. […] Systolic (SBP) and diastolic (DBP) blood pressures were measured five times on each conscious animal before treatments and every week during the experiment. […]

[2] = system: spontaneously hypertensive rats (SHR); test: Single-dose oral administration in SHR, tail cuff blood pressure and heart rate; type: in vivo, rat; conditions: single oral dose 40 mg/kg BW
Protocol: However, the relationship between ACEI and the in vivo action had to be tested. Therefore, the antihypertensive and heart rate (HR) lowering effect of milk fermented by specific L. lactis in a murine model was investigated. Spontaneously hypertensive male rats (SHR) (271±14 g) were randomized into […]: oral administration of milk fermented by L. lactis NRRL B-50571 or L. lactis NRRL B-50572 at 35 or 50 mg protein/kg of body weight (BW). Two more groups were fed with different solutions as controls: a saline solution was the negative control, meanwhile captopril (40 mg/kg BW), a proven ACE inhibitor was the positive control. Blood pressure and heart rate were monitored by the tail cuff method before treatments and 2, 4, 6 and 24 h post oral administration. […] Thus, milk fermented by specific L. lactis strains present potential benefits in the prevention and treatment of cardiovascular diseases associated to hypertension in humans. Samples of specific L. lactis fermented milk (prepared as previously described) for the single dose bioassay were obtained by centrifugation at 20,000×g for 10) min at 0° C. […] SHR were weaned for eight weeks and their systolic blood pressure monitored during this period. […] Systolic blood pressure (SBP), diastolic blood pressure (DBP) as well as heart rate (HR) were monitored before administration and 2, 4, 6 and 24 h post-administration. […]

## C[C@H](CS)C(=O)N1CCC[C@H]1C(=O)O [captopril]
[1]; fourth week (only water in last week), fermented milk ad libitum, captopril 40 mg/kg BW
  SBP reduction: 28.1±1.8 mm Hg
[1]; second and third week
  effect on SBP: marked lowering-effect
[1]; second week, fermented milk ad libitum, captopril 40 mg/kg BW
  DBP reduction: 38.4±8.5 mm Hg
[2]; 6 h, significantly different from the treatments
  decrease of SBP: maximum decrease
[2]; each measurement (2, 4, 6, 24 h)
  DBP reduction: maximum DBP reduction
